Laboratory results reported in ChEMBL document CHEMBL5113482, “Discovery of fused benzimidazole-imidazole autophagic flux inhibitors for treatment of triple-negative breast cancer” (Eur J Med Chem, 2022).
Calls of active or inactive are those of the source. The calls are words filed in the database; no cut-off is given here.

Key:
HCT-116 = assay: Antiproliferative activity against human HCT-116 cells assessed as cell growth inhibition measured after 48 hrs by MTT assay; format: functional, cell-based; conditions: HCT-116, 48 h
Nibrin (Homo sapiens) = biological target: T1, Nibrin (Homo sapiens) (UniProt O60934); assay: Activation of NBS1 phosphorylation in human MDA-MB-468 cells at 5 to 20 uM measured after 6 to 48 hrs by Western blot analysis; format: cell-based; conditions: filed as activator, dose 5-20 µM, time 6-48 hrs
T1 sequence (whole entry): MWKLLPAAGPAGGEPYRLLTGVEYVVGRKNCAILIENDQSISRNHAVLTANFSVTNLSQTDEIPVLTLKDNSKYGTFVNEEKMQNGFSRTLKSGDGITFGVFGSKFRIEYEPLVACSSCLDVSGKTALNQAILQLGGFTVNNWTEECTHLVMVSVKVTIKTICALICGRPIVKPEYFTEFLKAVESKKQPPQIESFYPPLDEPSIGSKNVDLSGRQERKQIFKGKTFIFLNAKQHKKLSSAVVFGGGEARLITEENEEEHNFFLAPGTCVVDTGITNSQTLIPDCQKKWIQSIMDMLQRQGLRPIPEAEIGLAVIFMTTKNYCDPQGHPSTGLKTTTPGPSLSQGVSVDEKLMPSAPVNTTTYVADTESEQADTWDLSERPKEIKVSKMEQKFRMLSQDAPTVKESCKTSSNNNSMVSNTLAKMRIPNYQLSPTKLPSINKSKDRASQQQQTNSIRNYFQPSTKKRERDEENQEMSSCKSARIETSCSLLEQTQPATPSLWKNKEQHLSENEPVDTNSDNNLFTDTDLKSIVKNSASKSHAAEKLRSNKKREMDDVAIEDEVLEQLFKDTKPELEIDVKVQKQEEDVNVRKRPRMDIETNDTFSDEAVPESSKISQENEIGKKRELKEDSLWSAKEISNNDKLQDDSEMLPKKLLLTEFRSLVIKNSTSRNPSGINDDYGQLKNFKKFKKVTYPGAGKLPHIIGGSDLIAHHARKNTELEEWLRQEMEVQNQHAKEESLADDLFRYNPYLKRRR

MDA-MB-468 [1] = assay: Induction of DNA damage in human MDA-MB-468 cells assessed as reduction in RAD51 expression measured after 6 to 48 hrs by Western blot analysis; format: functional, cell-based; conditions: dose 5-20 µM, time 6-48 hrs, DDE = dose-dependent effect
MDA-MB-468 [2] = assay: Inhibition of autophagic flux in human MDA-MB-468 cells assessed as increase in nuclear p62 expression measured after 48 hrs by immunofluorescence analysis; format: functional, cell-based; conditions: dose 5-20 µM, DDE = dose-dependent effect
MDA-MB-231 [3] = assay: Inhibition of autophagic flux in human MDA-MB-231 cells assessed as reduction in polyubiquitinated H2A expression measured after 48 hrs by Western blot analysis; format: functional, cell-based
MDA-MB-468 [4] = assay: Inhibition of autophagic flux in human MDA-MB-468 cells assessed as reduction in polyubiquitinated H2A expression measured after 48 hrs by Western blot analysis; format: functional, cell-based
MDA-MB-231 [5] = assay: Cell cycle arrest in human MDA-MB-231 cells assessed as increase in CHK1 phosphorylation at Ser 345 residue measured after 48 hrs by Western blot analysis; format: functional, cell-based; conditions: dose 5-20 µM, DDE = dose-dependent effect
MDA-MB-468 [6] = assay: Induction of mitochondrial membrane potential loss in human MDA-MB-468 cells at 20 uM measured after 48 hrs by JC-1 staining based assay relative to control; format: functional
MDA-MB-231 [7] = assay: Induction of apoptosis in human MDA-MB-231 cells assessed as reduction in Bcl-2 expression measured after 48 hrs by Western blot analysis; format: functional, cell-based; conditions: dose 5-20 µM, DDE = dose-dependent effect
MDA-MB-231 [8] = assay: Induction of apoptosis in human MDA-MB-231 cells assessed as increase in Bak expression measured after 48 hrs by Western blot analysis; format: functional, cell-based; conditions: dose 5-20 µM, DDE = dose-dependent effect
MDA-MB-231 [9] = assay: Induction of apoptosis in human MDA-MB-231 cells assessed as increase in Bax expression measured after 48 hrs by Western blot analysis; format: functional, cell-based; conditions: dose 5-20 µM, DDE = dose-dependent effect
MDA-MB-468 [10] = assay: Induction of apoptosis in human MDA-MB-468 cells assessed as reduction in Bcl-2 expression measured after 48 hrs by Western blot analysis; format: functional, cell-based; conditions: dose 5-20 µM, DDE = dose-dependent effect
MDA-MB-468 [11] = assay: Induction of apoptosis in human MDA-MB-468 cells assessed as increase in Bak expression measured after 48 hrs by Western blot analysis; format: functional, cell-based; conditions: dose 5-20 µM, DDE = dose-dependent effect
MDA-MB-468 [12] = assay: Induction of apoptosis in human MDA-MB-468 cells assessed as increase in cytochrome c expression measured after 48 hrs by Western blot analysis; format: functional, cell-based; conditions: dose 5-20 µM, DDE = dose-dependent effect
MDA-MB-231 [13] = assay: Antitumor activity against human MDA-MB-231 cells xenografted in ip dosed NOD/SCID mouse assessed as reduction in tumor growth administered at 3 days interval for 24 days and measured during compound dosing by caliper method; format: functional, organism-based; conditions: dose 5-15 mg/kg, time 24.0 day, DDE = dose-dependent effect

IC50 (HCT-116): 35.5 µM | Activity (Nibrin (Homo sapiens)): Active
Structure (SMILES): O=C(NC1CCCCC1)c1[nH]cnc1-c1nc2ccccc2[nH]1
Activity (MDA-MB-468 [1]): Dde | inhibition (MDA-MB-468 [2]): Dde | inhibition (MDA-MB-231 [3]): Active | inhibition (MDA-MB-468 [4]): Active | Activity (MDA-MB-231 [5]): Dde | Activity (MDA-MB-468 [6]): 50% | Activity (MDA-MB-231 [7]): Dde | Activity (MDA-MB-231 [8]): Dde | Activity (MDA-MB-231 [9]): Dde | Activity (MDA-MB-468 [10]): Dde | Activity (MDA-MB-468 [11]): Dde | Activity (MDA-MB-468 [12]): Dde | TGI (MDA-MB-231 [13]): Dde
